{
  "source": "patent US20190269715A1",
  "about": "“COMPOSITIONS AND METHOD OF USE OF A-TYPE PROCYANIDINS” (MARS, INCORPORATED, priority 2004, published 2019)",
  "origin": "cited, not measured here",
  "tested_on": "tumor",
  "conditions": "cited from earlier work",
  "data": [
    {"substance": "Nobotanin", "values": [
      {"measurement": "anti-tumor activity", "result": "anti-tumor activity"}
    ]}
  ]
}
